Measured values as given in US8802082B2, “Rhodamine derivatives for photodynamic diagnosis and treatment” (Université de Montreal, priority 1999, dated 2014).

Experiments:
[1] = tested on: activated T lymphocytes (CD25+, CD4+ and CD8+); test: Phenotypic analysis of residual T lymphocytes after phototherapy (CD25, CD4, CD8 flow cytometry); format: cell-based, human; conditions: 10 μM TH9402; 2.5, 5 and 10 joules/cm^2; 48 to 72 hours culture; untreated 14%
Method: In order to determine if the abrogation of reactivity toward subject B obtained after PDT correlated with the loss of activated T cells, the proportion of activated cells was determined in samples exposed or not to PDT. Activated cells can be discriminated from resting T lymphocytes by their enhanced expression of CD25, which can be detected with a monoclonal antibody specific for CD25, the inducible a chain of the IL-2 receptor. Briefly, after activation of T cells in mixed lymphocyte reaction, as described above, activated T lymphocytes were incubated in X-vivo 15 medium (BioWhittaker) supplemented with 2.5% human AB serum and 10 μM TH9402 for 40 min. These cells were than washed twice with X-vivo-15 medium supplemented with 10% AB human serum. At 110 min after the end of the incubation period, cells were exposed to doses of light ranging from 2.5 to 10 joules/cm^2 of using the above described light delivery device (U.S. Pat. No. 5,798,523). Light energy was delivered using a fluorescent scanning device with maximum wavelength at 512 nm. After treatment, cells were cultured for 48 to 72 hours in X-vivo-15 medium supplemented with 15% of human AB serum. After the latter incubation period, cells were counted and their immunophenotypes analyzed by dual-color flow cytometry to determine the proportion of activated T lymphocytes. […]

[2] = tested on: non-lymphoid hematopoietic progenitors (CFU-GM, BFU-E, CFU-GEMM); test: Clonogenic assay of hematopoietic progenitors in methylcellulose after PDT; format: cell-based, human; conditions: same conditions of PDT as for B cells
Method: To evaluate the potential of PDT with TH9402 to eliminate other immune cell populations, normal human B cells were used as targets. Mononuclear cells from normal donors were obtained by leukopheresis, and resuspended at 20 million cells per ml during the whole PDT process. Cells were centrifuged and resuspended in pre-warmed (37° C.) X-Vivo-15 medium supplemented with 2.5% FCS and 10 U/ml heparin, with 5 μM TH9402. After 40 minutes of incubation at 37° C., cells were washed and resuspended in a X-Vivo-15 medium and 10% FCS with 10 U/ml heparin (medium free of TH9402) for an efflux period of 50 minutes before exposure to light energy (10 to 30 Joules/cm^2). Cells underwent light exposure at 20 million cells per ml and at a thickness of 2 cm.
To verify that the treatment preserved normal hematopoetic progenitors, we have used a clonogenic assay to measure the amount of hematopoetic clonogenic precursors present in the same samples. […]
Normal human mononuclear cells were obtained and subjected to various PDP conditions to determine the efficacy of eradication of B cells, specificity and safety of the procedure. […] In contrast, when these cells were evaluated for the elimination of non-lymphoid hematopoietic progenitors, usually less than 50% (half of a logarithm) of these progenitors were eliminated by the same conditions of PDT (FIG. 7B). […]

Br.COC(=O)c1ccccc1-c1c2ccc(=N)c(Br)c-2oc2c(Br)c(N)ccc12 [TH9402, 4,5-dibromorhodamine 123 (2-(4,5-dibromo-6-amino-3-imino-3H-xanthen-9-yl)-benzoic acid methyl ester) hydrobromide]
proportion of activated T lymphocytes, both CD4+ and CD8+, after PDT [1]: below 1% | non-lymphoid hematopoietic progenitors eliminated [2]: less than 50%
